Data published in US20220378816A1, “2-BENZYLIDENE HYDRAZINOADENOSINE COMPOUNDS HAVING A2A ADENOSINE RECEPTOR AGONISTIC ACTIVITY” (ACADEMY OF MILITARY MEDICAL SCIENCES, priority 2019, published 2022).
Like-named read-outs stand apart in the source and are kept apart here. Values belong to the compound of their own block, whether it stands above or below them.

Columns and labels:
[1] = molecular target: T1, (human) A2A adenosine receptors (Homo sapiens, UniProt P29274); assay: Radioligand binding test ([3H]CGS21680 displacement, hA2A HEK-293 cell membranes); details: for Ki: read-out: Ki (inhibition constant)
T1 construct: purchased PerkinElmer Research Products (Boston, Mass.); host or cells: HEK-293
Experimental: Cell membranes stably transfected with (human) A2A adenosine receptors were prepared in HEK-293 cells. The cell membranes were obtained from PerkinElmer Research Products (Boston, Mass.).
The A2A adenosine receptors used were all expressed in the cell membranes. […] (final 25 nM) was added to the diluted cell membrane, and mixed well. 50 μL of the prepared dilution solution of cell membrane was transferred to the 384-well Opti-plate containing compound and incubated at 25° C. for 90 minutes. 100 μL of 0.5% Polyethyleneimine solution (PEI) was added to […]-96 GF/B filter plate, and soaked for 90 minutes at 4° C., then 500 μL of washing buffer/well (50 mM Tris-HCl pH 7.4, 154 mM NaCl) was transferred with Cell Harvester to wash the […]-96 GF/B filter plate twice. The mixed system in the Opti-plate was transferred to the washed […]-96 GF/B filter plate, 500 μL of washing buffer/well (50 mM Tris-HCl pH 7.4, 154 mM NaCl) was used to wash the […]-96 GF/B filter plate 9 times. Incubation was performed in 37° C. incubator for 3 minutes. 40 μL of ULTIMA GOLD scintillation solution (Perkin Elmer, Cat #77-16061) was added to each well, CPM (count per minute) value was read by a MicroBeta liquid scintillation counter (PerkinElmer).

[2] = molecular target: human adenosine receptor A2A (Homo sapiens, UniProt P29274); assay: Adenosine receptor A2A cAMP test (LANCE Ultra cAMP, hADORA2A-HEK293 cells); assay type: cell-based; details: for hA2AAR agonist function: cAMP test; for EC50: stimulating production of cyclic AMP, hADORA2A-HEK293 cells
Description: Experimental reagents and consumables: DMEM/F12, G418, Penicillin-Streptomycin, Versene Solution, HEPES, Hank's Buffered Saline Solution, PBS (pH 7.4, 1×, sterile), FBS, BSA Stabilizer 7.5%, Rolipram, NECA were separately purchased from Gibico, Hyclone and Sigma. LANCE® Ultra cAMP kit (Eu-cAMP tracer, Ulight-anti-cAMP reagent, cAMP detection buffer) and hADORA2A-HEK293 cells were purchased from PerkinElmer Research Products (Boston, Mass.). All other reagents were of analytical grade and obtained from commercial sources. 384-well polypropylene microplate and 384-well solid white plate were purchased from Labcyte and Corning, respectively.
The cells stably expressing human adenosine receptor A2A (hADORA2A-HEK293 cells) were cultured in DMEM/F12 medium containing 10% FBS, 1×Penicillin-Streptomycin and 400 μg/ml G418 in a 37° C. and 5% CO2 environment. Before the experiment, the cells were digested with Versene solution, and the cells were collected by centrifugation at 200 g and room temperature for 5 minutes, and finally resuspended with assay buffer (Hank's buffered saline solution, containing 5 mM HEPES, 0.1% BSA stabilizer and 10 μM Rolipram, pH 7.4). The TECAN automated liquid handling workstation was used to dilute the compound in a 384-well polypropylene microplate with DMSO to 11 concentration points in a 3-fold gradient to prepare the compound source plate, in which the 11 concentration points of the compound were 10 mM, 3.33 mM, 1.11 mM., 0.3 7mM, 0.1 2 mM, 0.041 mM, 0.013 mM, 4.57×10^−3 mM, 1.52×10^−3 mM, 5×10^−4 mM and 1.7×10^−4 mM. The Echo Acoustic Liquid Handler (Labcyte) was used to transfer the test compound from the compound source plate to an assay plate, in which the transfer volume of the compound was 10 nl/well. The hADORA2A-HEK293 cell suspension was diluted with assay buffer to 30,000 cells/ml, and the cell suspension was transferred to the assay plate at a volume of 10 μl/well (300 cells/well). The assay plate was centrifuged at 150 g for 1 minute and pre-incubated at room temperature for 30 minutes. The Eu-cAMP tracer working solution (Eu-cAMP tracer 40 μl, cAMP detection buffer 1.96 ml) (5 μl/well) was added to the assay plate, and then the Ulight-anti-cAMP working solution (13 μl of Ulight-anti-cAMP reagent and 1.95 ml of cAMP detection buffer) (5 µl/well) was added to the assay plate. The assay plate was rotated at 150 g for 30 seconds and incubated at room temperature for 30 minutes. The EnVision multimode plate reader (PerkinElmer) was used determine the level of cyclic adenosine monophosphate in the final solution (λex=320 nm, λem=665 nm & 615 nm). The EC50 (nM) value of the compound interacting with the A2A adenosine receptor to stimulate the production of cyclic adenosine monophosphate was calculated and the A2A receptor agonist titer of the compound was expressed as the EC50 (nM) value.

[3] = calculated from IC50 by Cheng and Prusoff equation, [S] 25 nM, Km […] nM

Chain of human adenosine receptor A2A (P29274 whole entry): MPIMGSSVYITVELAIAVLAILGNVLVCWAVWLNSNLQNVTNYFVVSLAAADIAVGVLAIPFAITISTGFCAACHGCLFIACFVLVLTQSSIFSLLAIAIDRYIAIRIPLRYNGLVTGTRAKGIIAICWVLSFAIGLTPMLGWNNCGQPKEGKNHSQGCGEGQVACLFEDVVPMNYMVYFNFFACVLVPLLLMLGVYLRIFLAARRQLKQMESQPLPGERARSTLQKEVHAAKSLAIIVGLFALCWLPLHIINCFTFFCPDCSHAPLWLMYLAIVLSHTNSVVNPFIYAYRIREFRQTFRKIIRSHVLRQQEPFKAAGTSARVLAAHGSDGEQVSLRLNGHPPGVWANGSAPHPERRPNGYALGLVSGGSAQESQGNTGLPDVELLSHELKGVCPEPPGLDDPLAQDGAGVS
T1 sequence (P29274 whole entry): as above

Structure (SMILES): Nc1nc(N/N=C/c2ccc(Cl)c(C(F)(F)F)c2)nc2c1ncn2[C@@H]1O[C@H](CO)[C@@H](O)[C@H]1O [Compound 7, (2R,3R,4S,5R)-2-{6-amino-2-{2-[(E)-4-chloro-3-(trifluoromethyl)benzylidene]hydrazino}-9H-purin-9-yl}-5-(hydroxymethyl)tetrahydrofuran-3,4-diol]
IC50 [1]: 1710 nM
Ki [1, 3]: 801 nM
melting point: 242 °C

Structure (SMILES): Nc1nc(N/N=C/c2ccc(N(c3ccccc3)c3ccccc3)cc2)nc2c1ncn2[C@@H]1O[C@H](CO)[C@@H](O)[C@H]1O [Compound 4, (2R,3R,4S,5R)-2-{6-amino-2-{2-[(E)-4-(diphenylamino)benzylidene]hydrazino}-9H-purin-9-yl}-5-(hydroxymethyl)tetrahydrofuran-3,4-diol]
IC50 [1]: 142 nM
Ki [1, 3]: 66.7 nM
melting point: 184 °C

Structure (SMILES): CC(=O)Nc1ccc(/C=N/Nc2nc(N)c3ncn([C@@H]4O[C@H](CO)[C@@H](O)[C@H]4O)c3n2)cc1 [Compound 1, N-{4-{(E)-{2-{6-amino-9-[(2R,3R,4S,5R)-3,4-dihydroxy-5-(hydroxymethyl)tetrahydrofuran-2-yl]-9H-purin-2-yl}hydrazono}methyl}phenyl}acetamide]
IC50 [1]: 2840 nM
Ki [1, 3]: 1330 nM
melting point: 126 °C

Structure (SMILES): Nc1nc(N/N=C/c2ccc(N3CCCC3)cc2)nc2c1ncn2[C@@H]1O[C@H](CO)[C@@H](O)[C@H]1O [Compound 10, (2R,3R,4S,5R)-2-{6-amino-2-{2-[(E)-4-(pyrrolidin-1-yl)benzylidene]hydrazino}-9H-purin-9-yl}-5-(hydroxymethyl)tetrahydrofuran-3,4-diol]
IC50 [1]: > 10000 nM
melting point: 174 °C

Structure (SMILES): Nc1nc(N/N=C/c2cccc(OCc3ccccc3)c2)nc2c1ncn2[C@@H]1O[C@H](CO)[C@@H](O)[C@H]1O [Compound 6, (2R,3R,4S,5R)-2-{6-amino-2-{2-[(E)-3-(benzyloxy)benzylidene] hydrazino}-9H-purin-9-yl}-5-(hydroxymethyl)tetrahydrofuran-3,4-diol]
IC50 [1]: 369 nM
Ki [1, 3]: 173 nM
melting point: 148 °C

Structure (SMILES): Nc1nc(N/N=C/c2ccc(-c3ccccn3)cc2)nc2c1ncn2[C@@H]1O[C@H](CO)[C@@H](O)[C@H]1O [Compound 8, (2R,3R,4S,5R)-2-{6-amino-2-{2-[(E)-4-(pyridin-2-yl)benzylidene] hydrazino}-9H-purin-9-yl}-5-(hydroxymethyl)tetrahydrofuran-3,4-diol]
IC50 [1]: 445 nM
Ki [1, 3]: 208 nM
melting point: 164 °C

Structure (SMILES): Nc1nc(N/N=C/c2ccc(C(F)(F)F)cc2C(F)(F)F)nc2c1ncn2[C@@H]1O[C@H](CO)[C@@H](O)[C@H]1O [Compound 3, (2R,3R,4S,5R)-2-{6-amino-2-{2-[(E)-2,4-bis(trifluoromethyl)benzylidene]hydrazino}-9H-purin-9-yl}-5-(hydroxymethyl)tetrahydrofuran-3,4-diol]
IC50 [1]: > 10000 nM
melting point: 239 °C

Structure (SMILES): Nc1nc(N/N=C/c2ccc(-c3ccccc3)cc2)nc2c1ncn2[C@@H]1O[C@H](CO)C(O)C1O (stereo partly drawn) [Compound 9]
hA2AAR agonist function [2]: shown as hA2AAR agonists
melting point: 234 °C

The next lines start with the values.

hA2AAR agonist function [2]: shown as hA2AAR agonists
EC50 [2]: 17.9 nM
IC50 [1]: 13.7 nM
Ki [1]: 6.4 nM
melting point: 164 °C
Structure (SMILES): CCN(CC)c1ccc(/C=N/Nc2nc(N)c3ncn([C@@H]4O[C@H](CO)[C@@H](O)[C@H]4O)c3n2)cc1 [Compound 15, (2R,3R,4S,5R)-2-{6-amino-2-{2-[(E)-4-(diethylamino)benzylidene]hydrazino}-9H-purin-9-yl}-5-(hydroxymethyl)tetrahydrofuran-3,4-diol]

IC50 [1]: 462 nM
Ki [1, 3]: 216 nM
melting point: 276 °C
Structure (SMILES): Nc1nc(N/N=C/c2ccc(-n3ccnc3)cc2)nc2c1ncn2[C@@H]1O[C@H](CO)[C@@H](O)[C@H]1O [Compound 12, (2R,3R,4S,5R)-2-{2-{2-[(E)-4-(1H-imidazol-1-yl)benzylidene]hydrazino}-6-amino-9H-purin-9-yl}-5-(hydroxymethyl)tetrahydrofuran-3,4-diol]

IC50 [1]: 479 nM
Ki [1]: 224 nM
melting point: 218 °C
Structure (SMILES): CCCOc1ccc(/C=N/Nc2nc(N)c3ncn([C@@H]4O[C@H](CO)C(O)C4O)c3n2)cc1 (stereo partly drawn) [Compound 13, (2R,3R,45,5R)-2-{6-amino-2-{2-[(E)-4-propoxybenzylidene]hydrazino}-9H-purine-9-yl}-5-(hydroxymethyl)tetrahydrofuran-3,4-diol]

EC50 [2]: 15.3 nM
IC50 [1]: 18.1 nM
Ki [1]: 8.5 nM
melting point: 276 °C
Structure (SMILES): N#Cc1ccc(/C=N/Nc2nc(N)c3ncn([C@@H]4O[C@H](CO)C(O)C4O)c3n2)cc1 (stereo partly drawn) [Compound 20]

IC50 [1]: 3460 nM
Ki [1, 3]: 1620 nM
melting point: 198 °C
Structure (SMILES): CCOc1cc(/C=N/Nc2nc(N)c3ncn([C@@H]4O[C@H](CO)[C@@H](O)[C@H]4O)c3n2)ccc1O [Compound 16, (2R,3R,4S,5R)-2-{6-amino-2-{2-[(E)-3-ethoxy-4-hydroxybenzylidene]hydrazino}-9H-purin-9-yl}-5-(hydroxymethyl)tetrahydrofuran-3,4-diol]

melting point: 260 °C
Structure (SMILES): N#Cc1ccccc1/C=N/Nc1nc(N)c2ncn([C@@H]3O[C@H](CO)C(O)C3O)c2n1 (stereo partly drawn) [Compound 14]

IC50 [1]: 216 nM
Ki [1, 3]: 101 nM
melting point: 146 °C
Structure (SMILES): COc1cc(/C=N/Nc2nc(N)c3ncn([C@@H]4O[C@H](CO)[C@@H](O)[C@H]4O)c3n2)ccc1OCc1ccccc1 [Compound 19, (2R,3R,4S,5R)-2-{6-amino-2-{2-[(E)-4-(benzyloxy)-3-methoxybenzylidene]hydrazino}-9H-purin-9-yl}-5-(hydroxymethyl)tetrahydrofuran-3,4-diol]

IC50 [1]: 1710 nM
Ki [1, 3]: 800 nM
melting point: 186 °C
Structure (SMILES): Nc1nc(N/N=C/c2ccc(N3CCOCC3)cc2)nc2c1ncn2[C@@H]1O[C@H](CO)[C@@H](O)[C@H]1O [Compound 17, (2R,3R,4S,5R)-2-{6-amino-2-{2-[(E)-4-morpholinobenzylidene]hydrazino}-9H-purin-9-yl}-5-(hydroxymethyl)tetrahydrofuran-3,4-diol]

IC50 [1]: > 10000 nM
melting point: 246 °C
Structure (SMILES): COc1cc(/C=N/Nc2nc(N)c3ncn([C@@H]4O[C@H](CO)[C@@H](O)[C@H]4O)c3n2)cc(OC)c1OC [Compound 18, (2R,3R,4S,5R)-2-{6-amino-2-{2-[(E)-3,4,5-trimethoxybenzylidene]hydrazino}-9H-purin-9-yl}-5-(hydroxymethyl)tetrahydrofuran-3,4-diol]

IC50 [1]: 131 nM
Ki [1, 3]: 61.3 nM
melting point: 260 °C
Structure (SMILES): Nc1nc(N/N=C/c2ccc(C(F)(F)F)cc2)nc2c1ncn2[C@@H]1O[C@H](CO)[C@@H](O)[C@H]1O [Compound 11, (2R,3R,4S,5R)-2-{6-amino-2-{2-[(E)-4-(trifluoromethyl)benzylidene]hydrazino}-9H-purin-9-yl)-5-(hydroxymethyl)tetrahydrofuran-3,4-diol]
